Patent US20250314639A1, “SYSTEMS AND METHODS FOR HIGH THROUGHPUT SINGLE MOLECULE TRACKING IN LIVING CELLS” (EIKON THERAPEUTICS, INC., priority 2022, published 2025)
“Also recorded” adds a separate entry of the source.

Key:
ER [1] = molecular target: T1, ER (Homo sapiens, UniProt P03372); experiment: htSMT change in fbound of Halo-ER in U2OS cells; type: cell-based; settings: for change in fbound of ER: versus DMSO, bioactive screen at 1 μM compound
T1 construct: expressed in transfected cells; host or cells: U2OS
T1 sequence (P03372 1-595): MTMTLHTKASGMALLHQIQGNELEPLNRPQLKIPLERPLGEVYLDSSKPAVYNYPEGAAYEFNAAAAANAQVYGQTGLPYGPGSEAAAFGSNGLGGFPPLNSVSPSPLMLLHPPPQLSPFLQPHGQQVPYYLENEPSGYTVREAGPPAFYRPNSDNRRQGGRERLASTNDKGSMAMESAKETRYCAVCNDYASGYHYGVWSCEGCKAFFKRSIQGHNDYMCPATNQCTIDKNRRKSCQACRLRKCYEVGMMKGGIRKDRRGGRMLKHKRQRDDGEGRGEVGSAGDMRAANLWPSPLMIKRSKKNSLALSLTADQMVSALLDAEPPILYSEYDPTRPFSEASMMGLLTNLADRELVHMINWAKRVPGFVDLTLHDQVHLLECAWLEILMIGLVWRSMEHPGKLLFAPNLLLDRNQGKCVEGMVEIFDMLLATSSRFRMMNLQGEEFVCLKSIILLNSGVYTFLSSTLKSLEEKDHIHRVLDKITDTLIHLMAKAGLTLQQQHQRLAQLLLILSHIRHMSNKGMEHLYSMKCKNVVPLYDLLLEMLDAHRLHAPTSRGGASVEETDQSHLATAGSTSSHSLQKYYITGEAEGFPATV

ER [2] = molecular target: T1, ER; experiment: residence time imaging of ER-Halo cells (track length survival); type: cell-based; settings: 100 nM HSP90 inhibition, versus DMSO, FIG. 16E
ER [3] = molecular target: T1, ER; experiment: kinetic SMT (kSMT) of ER after compound addition; type: cell-based; settings: for t1/2 of increase in fbound: 100 nM compound, single exponential fit; for time at which overall effect on ER movement reaches a plateau: FIG. 16C
ER [4] = molecular target: T1, ER; experiment: Western blot of ER after 24 hours compound treatment; type: cell-based; settings: 100 nM fulvestrant, MCF7, T47d, Halo-ER U2OS
Experimental: Cells were grown in the same conditions as described previously. […] Cells are lysed in 200 μL 1× Cell Lysis Buffer (catalogue number 9803, Cell Signaling). Protein lysate concentration is then determined using BCA protein assay kit (Catalog number 23225, Pierce™ BCA Protein Assay Kit) following manufacturer instructions. Capillary Western Immunoassay were performed using Jess Protein Simple following manufacturer's instruction (protein simple, USA). Levels of αER (1:100, RM-9101) were normalized to loading control β-tubulin (1:100, NC0244815 LI-COR 92642213, Thermo Fisher). The peaks were analyzed with the Compass software (Protein Simple, USA).

AR = AR (Homo sapiens, UniProt P10275)
GR = molecular target: T2, GR (Homo sapiens, UniProt P04150); experiment: htSMT fbound of GR-HaloTag in U2OS cells; type: cell-based; settings: 1 μM antagonist, singly or co-administered with the cognate agonist
T2 construct: Because U2OS cells express GR endogenously; endogenous in cells; host or cells: U2OS (CRISPR/Cas9 knock-in at the endogenous locus)
T2 sequence (P04150 1-777): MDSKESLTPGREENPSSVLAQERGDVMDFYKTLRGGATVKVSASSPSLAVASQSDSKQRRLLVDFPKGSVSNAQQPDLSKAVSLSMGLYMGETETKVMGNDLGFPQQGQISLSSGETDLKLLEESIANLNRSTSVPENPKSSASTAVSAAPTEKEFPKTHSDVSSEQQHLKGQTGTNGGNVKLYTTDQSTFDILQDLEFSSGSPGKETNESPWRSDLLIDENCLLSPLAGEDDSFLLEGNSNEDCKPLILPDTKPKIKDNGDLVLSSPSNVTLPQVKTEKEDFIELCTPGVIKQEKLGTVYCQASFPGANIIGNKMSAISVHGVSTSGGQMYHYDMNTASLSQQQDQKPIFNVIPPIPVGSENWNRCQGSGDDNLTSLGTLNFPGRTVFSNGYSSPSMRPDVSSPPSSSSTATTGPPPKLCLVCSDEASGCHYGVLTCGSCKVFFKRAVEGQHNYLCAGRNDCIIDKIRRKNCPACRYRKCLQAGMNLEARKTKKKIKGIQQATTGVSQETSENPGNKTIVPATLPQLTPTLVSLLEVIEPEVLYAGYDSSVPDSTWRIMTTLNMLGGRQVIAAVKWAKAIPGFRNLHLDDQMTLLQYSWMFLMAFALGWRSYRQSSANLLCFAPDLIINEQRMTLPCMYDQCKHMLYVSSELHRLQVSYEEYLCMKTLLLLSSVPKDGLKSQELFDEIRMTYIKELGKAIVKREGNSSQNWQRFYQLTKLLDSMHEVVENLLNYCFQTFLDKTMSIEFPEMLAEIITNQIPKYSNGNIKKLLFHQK
Excerpt: Where appropriate, compounds were serially diluted in an Echo Qualified 384-Well Low Dead Volume Source Microplate (0018544, Beckman Coulter) to generate dose-titration source material.

Chain of AR (P10275 whole entry): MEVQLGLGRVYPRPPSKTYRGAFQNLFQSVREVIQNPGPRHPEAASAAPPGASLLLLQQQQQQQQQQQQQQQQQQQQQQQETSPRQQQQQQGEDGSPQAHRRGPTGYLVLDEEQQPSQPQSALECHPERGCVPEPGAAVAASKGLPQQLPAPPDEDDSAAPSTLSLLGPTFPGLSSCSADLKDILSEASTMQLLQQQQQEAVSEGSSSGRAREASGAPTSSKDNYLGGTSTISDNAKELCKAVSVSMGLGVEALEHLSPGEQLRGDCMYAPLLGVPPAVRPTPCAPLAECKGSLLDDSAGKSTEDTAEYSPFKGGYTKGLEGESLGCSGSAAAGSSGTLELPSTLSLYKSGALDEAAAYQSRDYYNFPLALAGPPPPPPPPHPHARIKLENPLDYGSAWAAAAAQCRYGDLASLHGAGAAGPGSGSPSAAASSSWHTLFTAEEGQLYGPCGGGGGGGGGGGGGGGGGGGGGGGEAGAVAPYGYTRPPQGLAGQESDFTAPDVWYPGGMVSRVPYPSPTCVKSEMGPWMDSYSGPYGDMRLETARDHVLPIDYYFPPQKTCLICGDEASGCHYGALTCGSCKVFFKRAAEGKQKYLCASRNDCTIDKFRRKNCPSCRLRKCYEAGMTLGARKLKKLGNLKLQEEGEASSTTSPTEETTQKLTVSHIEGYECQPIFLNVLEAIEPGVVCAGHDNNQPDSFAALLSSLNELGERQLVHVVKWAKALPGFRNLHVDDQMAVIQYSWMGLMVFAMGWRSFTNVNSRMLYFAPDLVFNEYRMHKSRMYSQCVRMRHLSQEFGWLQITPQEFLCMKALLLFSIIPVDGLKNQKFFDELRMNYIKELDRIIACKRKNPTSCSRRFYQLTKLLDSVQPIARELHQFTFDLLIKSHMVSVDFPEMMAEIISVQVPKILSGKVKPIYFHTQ

| Compound | change in fbound of ER (ER [1]) | decrease in the total number of long binding events (ER [2]) | t1/2 of increase in fbound (ER [3]) [min] | time at which overall effect on ER movement reaches a plateau (ER [3]) | further results |
| --- | --- | --- | --- | --- | --- |
| 4-hydroxytamoxifen | significantly increased fbound | – | – | – | maximal increase in fbound of ER (ER [1]; compared with the SERDs fulvestrant and GDC-0927, FIG. 14D): lower maximal increases in fbound |
| COc1cccc(-c2cc(F)ccc2[C@H]2Cc3nc(N)nc(C)c3C(=O)N2)n1 [HSP990] | an increase in fbound | two | 17.5 | plateau after an hour | – |
| C[C@]12CC[C@@H]3c4ccc(O)cc4C[C@@H](CCCCCCCCC[S+]([O-])CCCC(F)(F)C(F)(F)F)[C@H]3[C@@H]1CC[C@@H]2O (some centres unmarked) [fulvestrant] | caused an increase in fbound; also recorded: significantly increased fbound | – | – | – | ER degradation (western blot) (ER [4]): leads to the degradation of ER |
| CC(O)c1cc(C(=O)N[C@@H](C)Cn2ccc(-c3ccc(C#N)c(Cl)c3)n2)[nH]n1 (some centres unmarked) [Darolutamide] | – | – | – | – | change in chromatin binding (fbound) of AR (AR): decrease in chromatin binding |
| CN(C)c1ccc(C(c2ccc(N(C)C)cc2)c2cc([N+](=O)[O-])ccc2Cl)cc1 [AL082D06] | – | – | – | – | change in chromatin binding (fbound) of GR (GR): decrease in chromatin binding |
| CC(C)c1cc(-c2n[nH]c(=O)n2-c2ccc3c(ccn3C)c2)c(O)cc1O [ganetespib] | an increase in fbound | four | 19.3 | plateau after an hour | – |
